{"source": "patent US20040009241A1", "about": "“External skin preparations for suppressing sebum secretion” (priority 2002, published 2004)", "key": {"sebum secretion": {"system": "sebum secretion", "assay": "Inhibitory effect of MMPs inhibitors on sebum secretion in UVB-irradiated hairless mice (sebumeter)", "type": "in vivo", "description": "UV is generally known to activate the sebaceous gland cells on the skin and thereby to enhance the amount of sebum secretion, which has been reported on a model using hairless mice ([…] et al., Arch Dermatol., Vol. 284, 106 (1992)). In an experiment, Bissett et al. (Phytochem. Phytobiol, Vol. 46, 3, 367 (1987)) applied the method of preparing a light-aged skin, and induced the activation of sebaceous gland cells and enhancement in the amount of sebum by irradiating the dorsal area of the […] repeatedly three times per week for 5-8 weeks by controlling the amount of UVB irradiation to under the […] formation level. […] As the control, a group in which the solvent for the test substance was applied in a similar protocol was set up, and the effect of inhibiting sebum was evaluated by comparing the amount of sebum between the two. The measurement of sebum amount was performed using a sebumeter (COURAGE KHAZAKA company). From the measured values, the ratio (%) of sebum inhibition was calculated based on the following criteria: [formula]"}, "[1]": {"system": "gelatinase belonging to the MMPs", "settings": "skin irradiated with UVB for 10 weeks, EDTA (100 mM) added in vitro; FIG. 3C", "source_text": "By staining gelatin with the Ponceau solution, the gelatin digested area (the area in which the gelatinase activity is present) was rendered white for detection."}, "gelatinase": {"system": "gelatinase", "assay": "Gelatinase activity in the sebaceous gland after transdermal application, in situ zymography", "type": "in vivo, hairless mice", "settings": "FIG. 4A vs solvent only FIG. 4B", "description": "(§1) The effect of the transdermal application of an MMPs inhibitor on the sebaceous gland development and the gelatinase activity present in the sebaceous gland is shown for active substance A as an example (FIG. 4A and FIG. 4B)."}, "sebaceous gland": {"system": "sebaceous gland", "assay": "Effect of transdermal application of an MMPs inhibitor on sebaceous gland development under UVB stimulation", "type": "in vivo, hairless mice", "settings": "FIG. 4A vs solvent only FIG. 4B", "description": "It is known that when UVB (50 mJ/cm^2-200 mJ/cm^2; 50 mJ/cm^2 at the start of irradiation, the amount of irradiation is increased stepwise depending on the number of irradiations) below the erythema formation level is repeatedly irradiated to hairless mice, the sebaceous gland becomes developed and the amount of sebum increases (R. H. Lesnik et al., Arch Dermatol., Vol. 284, 106 (1992)). FIG. 2A and FIG. 2B represent the H&E stains of the UVB-non-irradiated tissue and the UVB-irradiated tissue. It is observed that UVB irradiation results in the thickening of the epidermis as well as the development of the sebaceous gland.\nas §1"}, "[2]": {"settings": "100 μl of 1% test substance applied three times per week immediately after each UV irradiation, vs solvent group, hairless mice dorsal area, 5-8 weeks UVB"}}, "note": "Where a name gives a salt, the structure may show the parent alone.", "data": [{"compound": "COc1cc(/C=C/C(=O)CC(=O)/C=C/c2ccc(O)c(OC)c2)ccc1O", "note": "[Curcumine, curcumine]", "values": [{"measurement": "Ratio of sebum inhibition (%)", "setting": "sebum secretion; [2]", "value": 77, "unit": "%"}]}, {"compound": "O=C(O)CN(CCN(CC(=O)O)CC(=O)O)CC(=O)O", "note": "[EDTA]", "values": [{"measurement": "Gelatin degradation at the epidermal area and the sebaceous gland area", "setting": "[1]", "value": "inhibited the gelatin degradation"}]}, {"compound": "C[C@]12CC[C@@H]3c4ccc(O)cc4CC[C@H]3[C@@H]1CC[C@@H]2O", "note": "[Estradiol, estradiol, reference compound]", "values": [{"measurement": "Ratio of sebum inhibition (%)", "setting": "sebum secretion; positive control, 0.6 mg/kg oral administration, UVB-irradiated hairless mice", "value": 65, "unit": "%"}]}, {"compound": "COc1ccc(S(=O)(=O)N(Cc2cccnc2)[C@@H](C(=O)NO)C(C)C)cc1", "note": "[Hydrochloride of active ingredient A]", "values": [{"measurement": "Ratio of sebum inhibition (%)", "setting": "sebum secretion; [2]", "value": 79, "unit": "%"}]}, {"compound": "COc1ccc(S(=O)(=O)N(Cc2cccnc2)[C@@H](C(=O)NO)C(C)C)cc1", "note": "[active substance A]", "values": [{"measurement": "Gelatinase activity present in the sebaceous gland", "setting": "gelatinase", "value": "inhibited"}, {"measurement": "Development of the sebaceous gland area", "setting": "sebaceous gland", "value": "suppresses the development of the sebaceous gland area"}]}]}
